Reference: patent publication US20160310505A1, “PROSTAMIDES FOR ENHANCEMENT OF LEPTIN PRODUCTION” (Allergan, Inc., priority 2013, published 2016)
Entries after “also recorded” stand apart in the source; their conditions may differ.

What was measured:
[1] = Once a day topical application to rats for six months (subcutaneous fat, body weight); type: in vivo; conditions: for subcutaneous fat: topical once a day, six months, ~10% body surface coverage; for body weight (FIG. 2): topical treatment
Text: Bimatoprost (AGN 192024) is a synthetic prostamide which has been used in intraocular pressure lowering therapeutics such as LUMIGAN® 0.03, LUMIGAN® 0.01 and GANFORT®. […] In FIG. 1, bimatoprost was applied topically once per day for 6 months to rats. […] FIG. 2 describes the systemic exposure (topically applied) of bimatoprost by measuring blood levels of the compound after treatment. […] The in vivo action of bimatoprost is likely a dual mechanism to inhibit food intake and suppress replenishment of fat cells during normal turnover. […] Blood was drawn every 2 weeks and the serum was analyzed for leptin levels by luminex assay. […] A cafeteria diet is a high sugar and fat diet with typical “junk food”: […]

[2] = Cafeteria diet induced fatty liver in rats, liver histology; type: in vivo; conditions: cafeteria diet 10 weeks
Text: Rats were fed the cafeteria diet for 10 weeks and administered bimatoprost daily. At the end of 10 weeks, livers were resected and examined by histology. […] This has important consequences in the potential treatment of non-alcoholic fatty liver disease (NAFLD).

[3] = Patient use examples (transdermal patch or topical gel); type: in vivo, human
Text: A person who is morbidly obese applies a bimatoprost transdermal skin patch on their arm, which uniformly releases a 5% w/w bimatoprost formulation over a thirty day period. […] The patient loses 6 pounds more than they would have otherwise lost without using the bimatoprost transdermal skin patch. A person applies a 3% w/w bimatoprost gel to their skin once a day. […] A person with elevated blood pressure has been determined by doctors to have prediabetes. In addition to being on a low fat, low sugar diet, the patient uses a transdermal bimatoprost patch which releases a 3% w/w bimatoprost formulation through the dermis and into the blood stream. […] A person is diagnosed with non-alcoholic fatty liver. The patient applies a transdermal bimatoprost patch which releases a 2% w/w bimatoprost formulation. […] A healthy person in an effort to lose weight is on a low fat diet. In order to suppress their appetite, the person applies a bimatoprost transdermal patch which continually releases 1% w/w bimatoprost for 30 days.

pre-adipocyte = assay: Pre-adipocyte differentiation; type: cell-based
human pre-adipocytes = assay: Leptin production in human pre-adipocytes; type: cell-based; conditions: 1 μM, 8 days, vehicle DMSO
Description: Vehicle is DMSO, bimatoprost treatment at 1 μM. Stimulation of leptin over 8-days of bimatoprost treatment; In FIG. 1, bimatoprost was applied topically once per day for 6 months to rats. […] FIG. 2 describes the systemic exposure (topically applied) of bimatoprost by measuring blood levels of the compound after treatment. […] The in vivo action of bimatoprost is likely a dual mechanism to inhibit food intake and suppress replenishment of fat cells during normal turnover. […] Blood was drawn every 2 weeks and the serum was analyzed for leptin levels by luminex assay. […] A cafeteria diet is a high sugar and fat diet with typical “junk food”: […]

Leptin = assay: Serum leptin levels by luminex assay in male rats on a cafeteria diet; type: in vivo
Description: In FIG. 1, bimatoprost was applied topically once per day for 6 months to rats. […] FIG. 2 describes the systemic exposure (topically applied) of bimatoprost by measuring blood levels of the compound after treatment. […] The in vivo action of bimatoprost is likely a dual mechanism to inhibit food intake and suppress replenishment of fat cells during normal turnover. […] Blood was drawn every 2 weeks and the serum was analyzed for leptin levels by luminex assay. […] A cafeteria diet is a high sugar and fat diet with typical “junk food”: […]

[4] = Example 1: transdermal skin patch, 5% w/w, thirty days
[5] = Example 3: prediabetes patient, transdermal patch, 3% w/w
[6] = Example 5: transdermal patch, 1% w/w, 30 days

In the case of `CCNC(=O)CCC/C=C\C[C@@H]1[C@@H](/C=C/[C@@H](O)CCc2ccccc2)[C@H](O)C[C@@H]1O` [bimatoprost, Bimatoprost], the “subcutaneous fat at sites distal to the application site (FIG. 1)” value ([1]; 3% w/v bimatoprost vs vehicle) is reported as “subcutaneous fat reduction at sites distal to the application site”, the subcutaneous fat [1] is reported as “substantial local subcutaneous fat reduction, as well as reduction at adjunct and distal sites” and the subcutaneous fat ([1]; listed as Bimatoprost) is reported as “subcutaneous fat loss at sites distant from the application site”. For the same molecule, the “body weight (FIG. 2)” value [1] was “reduction in body weight”, the “body weight (FIG. 2)” value ([1]; listed as Bimatoprost) was “reduction in weight over time” and the liver lipidosis ([2]; 0.3% bimatoprost formulation daily) was “reduced lipidosis as compared to the control”. For the same molecule, the liver lipidosis ([2]; 1% bimatoprost formulation daily) was “reduced lipidosis as compared to the control”, the “cafeteria diet induced fatty liver changes (FIG. 5)” value ([2]; topical daily) was “dose-dependently decreases cafeteria diet induced fatty liver changes; also recorded: inhibited cafeteria diet induced fatty liver disease” and the leptin levels ([3]; Example 1: morbidly obese person, transdermal skin patch, 5% w/w, thirty days) was “leptin levels increase”. For the same molecule, the “additional weight lost versus no patch” value [3, 4] was 6 pounds, the appetite [3, 4] was “suppressed appetite” and the leptin levels ([3]; Example 2: 3% w/w gel on skin once a day, after several days) was “elevated leptin levels”. The appetite ([3]; Example 2: 3% w/w gel once a day) was “suppresses appetite”, the body weight ([3]; Example 2: 3% w/w gel once a day, sixty day period) was “maintains their weight” and the appetite [3, 5] was “reduction in appetite”. For the same molecule, the blood leptin levels [3, 5] was “immediate increase in blood leptin levels”, the body weight [3, 5] was “weight loss” and the “lipidosis in the liver” value ([3]; Example 4: non-alcoholic fatty liver patient, transdermal patch, 2% w/w) was “reduction in lipidosis in the liver”. The leptin levels ([3]; Example 5: healthy female on low fat diet, transdermal patch, 1% w/w, 30 days) was “leptin levels rise”, the appetite [3, 6] was “suppression of their appetite” and the body weight [3, 6] was “greater weight loss”. For the same molecule, the differentiation of pre-adipocytes (pre-adipocyte) was “inhibit differentiation”, the “leptin production (FIG. 3)” value (human pre-adipocytes) was “increases Leptin production; also recorded: increase in leptin production” and the serum leptin levels (Leptin; male rats on cafeteria diet, 0.3% bimatoprost in BSHG formulation topical daily, p<0.01, 2-way ANOVA) was “elevated levels of Leptin”. For the same molecule, the “leptin levels (FIG. 4)” value (Leptin; rats on a cafeteria diet, topical daily) was “elevated leptin levels”.
